Assay results from patent publication US20120065126A1, “Pharmaceutical Compositions Containing Antifungal Peptides” (BASF SE, priority 2009, published 2012).

How the values were obtained:
[1] = tested on: Escherichia coli (Stratagene, BLR); assay: Short-term effect (CFU); type: cell-based
Description: For this purpose, the procedure was as follows.
LB growth medium (Becton, Dickinson and Company, Sparks, USA) […] make up to 1 liter, set pH 7
The growth test was effected as follows: 10 ml of LB medium were inoculated with E. coli and incubated at 37° C. and 200 rpm overnight.
1.5 ml reaction vessels were each filled with 1 ml of LB medium and inoculated with the E. coli suspension from the overnight culture. The E. coli suspension was adjusted at the start of the experiment to an optical density, measured at 600 nm, of 0.1. The concentration of the peptide solution in water or ZPT solution (zinc pyrithione, >96%, Sigma Aldrich) dissolved in DMSO was 2% (w/w).
The following growth was compared: • E. coli suspension and addition of P18 peptide with a final concentration in the 1.5 ml reaction vessel of 50 ppm after 5 minutes, 10 minutes, 20 minutes and 60 minutes • E. coli suspension and addition of P18 peptide with a final concentration in the 1.5 ml reaction vessel of 100 ppm after 5 minutes, 10 minutes, 20 minutes and 60 minutes • E. coli suspension and addition of P18 peptide with a final concentration in the 1.5 ml reaction vessel of 200 ppm after 5 minutes, 10 minutes, 20 minutes and 60 minutes • E. coli suspension and addition of P18 peptide with a final concentration in the 1.5 ml reaction vessel of 500 ppm after 5 minutes, 10 minutes, 20 minutes and 60 minutes • E. coli suspension and addition of P18 peptide with a final concentration in the 1.5 ml reaction vessel of 1000 ppm after 5 minutes, 10 minutes, 20 minutes and 60 minutes • E. coli suspension and addition of ZPT with a final concentration in the 1.5 ml reaction vessel of 50 ppm after 5 minutes, 10 minutes, 20 minutes and 60 minutes • E. coli suspension and addition of ZPT with a final concentration in the 1.5 ml reaction vessel of 100 ppm after 5 minutes, 10 minutes, 20 minutes and 60 minutes • E. coli suspension and addition of ZPT with a final concentration in the 1.5 ml reaction vessel of 200 ppm after 5 minutes, 10 minutes, 20 minutes and 60 minutes • E. coli suspension and addition of ZPT with a final concentration in the 1.5 ml reaction vessel of 500 ppm after 5 minutes, 10 minutes, 20 minutes and 60 minutes • E. coli suspension and addition of ZPT with a final concentration in the 1.5 ml reaction vessel of 1000 ppm after 5 minutes, 10 minutes, 20 minutes and 60 minutes
The 1.5 ml reaction vessels were incubated at room temperature.
After the incubation times specified, the colony forming units (CFU) were determined by streaking 1 μl of each of the suspensions diluted in 20 μl of LB medium and, after incubation for 2 days, counting the colonies.

Malassezia furfur = assay: Incubation times between 5 minutes and 1 hour (CFU); type: cell-based
Description: The studies described hereinafter were conducted on the Malassezia furfur strain DSM 6170.
For this purpose, the concentrations 100 μM, 200 μM and 500 μM of P18 peptide and of zinc pyrithione as a control substance were used in the experiment. The experiments were conducted as follows:
The growth test was effected as follows: a shake culture containing M472 Pityrosporum medium was inoculated with M. furfur and incubated with shaking at 30° C. and 200 rpm overnight.
A 96-well microtiter plate was filled with 100 μl per well of M472 Pityrosporum medium and inoculated with M. furfur suspension from the overnight culture. The M. furfur suspension was adjusted at the start of the experiment to an optical density, measured at 600 nm, of 0.1.
The following growth was compared: • M. furfur suspension and addition of P18 peptide with a final concentration of 100 μM, plating after 5 minutes, 10 minutes, 20 minutes and 60 minutes • M. furfur suspension and addition of P18 peptide with a final concentration of 200 μM, plating after 5 minutes, 10 minutes, 20 minutes and 60 minutes • M. furfur suspension and addition of P18 peptide with a final concentration of 500 μM, plating after 5 minutes, 10 minutes, 20 minutes and 60 minutes • M. furfur suspension and addition of zinc pyrithione with a final concentration of 100 μM, plating after 5 minutes, 10 minutes, 20 minutes and 60 minutes • M. furfur suspension and addition of zinc pyrithione with a final concentration of 200 μM, plating after 5 minutes, 10 minutes, 20 minutes and 60 minutes • M. furfur suspension and addition of zinc pyrithione with a final concentration of 500 μM, plating after 5 minutes, 10 minutes, 20 minutes and 60 minutes
The microtiter plate was incubated with shaking at 30°.
After the incubation times specified, the colony forming units (CFU) were determined by streaking 50 μl of each of the suspensions and, after incubation over the course of 6 days, counting the colonies. The CFU was determined in order to rule out any influence of the biphasic medium, and also the growth form of M. furfur, on the optical density. The experiments were repeated independently of one another.

Substance	Colony forming units after the incubation time specified ([1]; 50 ppm, 5 minutes)	Colony forming units after the incubation time specified ([1]; 50 ppm, 10 minutes)	Colony forming units after the incubation time specified ([1]; 50 ppm, 20 minutes)	Colony forming units after the incubation time specified ([1]; 50 ppm, 60 minutes)	Colony forming units after the incubation time specified ([1]; 100 ppm, 5 minutes)	Colony forming units after the incubation time specified ([1]; 100 ppm, 10 minutes)	Colony forming units after the incubation time specified ([1]; 100 ppm, 20 minutes)	Colony forming units after the incubation time specified ([1]; 100 ppm, 60 minutes)	Colony forming units after the incubation time specified ([1]; 200 ppm, 5 minutes)	Colony forming units after the incubation time specified ([1]; 200 ppm, 10 minutes)	Colony forming units after the incubation time specified ([1]; 200 ppm, 20 minutes)	Colony forming units after the incubation time specified ([1]; 200 ppm, 60 minutes)	Colony forming units after the incubation time specified ([1]; 500 ppm, 5 minutes)	Colony forming units after the incubation time specified ([1]; 500 ppm, 10 minutes)	Colony forming units after the incubation time specified ([1]; 500 ppm, 20 minutes)	Colony forming units after the incubation time specified ([1]; 500 ppm, 60 minutes)	Colony forming units after the incubation time specified ([1]; 1000 ppm, 5 minutes)	Colony forming units after the incubation time specified ([1]; 1000 ppm, 10 minutes)	Colony forming units after the incubation time specified ([1]; 1000 ppm, 20 minutes)	Colony forming units after the incubation time specified ([1]; 1000 ppm, 60 minutes)	other results
H-KWKLFKKIPKFLHLAKKF-NH2 [P18, H-KWKLFKKIPKFLHLAKKF-NH2]	2000 ± 0 CFU	2000 ± 0 CFU	2000 ± 0 CFU	1208 ± 532 CFU	2000 ± 0 CFU	2000 ± 0 CFU	1836 ± 108 CFU	726 ± 88 CFU	2000 ± 0 CFU	2000 ± 0 CFU	1310 ± 144 CFU	192 ± 56 CFU	2000 ± 0 CFU	2000 ± 0 CFU	816 ± 96 CFU	24 ± 16 CFU	2000 ± 0 CFU	2000 ± 0 CFU	369 ± 383 CFU	6 ± 2 CFU	Colony forming units after incubation time specified (Malassezia furfur; 100 μM, 5 minutes): >1000 CFU; Colony forming units after incubation time specified (Malassezia furfur; 100 μM, 10 minutes): >1000 CFU; Colony forming units after incubation time specified (Malassezia furfur; 100 μM, 20 minutes): 604 CFU; Colony forming units after incubation time specified (Malassezia furfur; 100 μM, 60 minutes): 149 ± 60 CFU; Colony forming units after incubation time specified (Malassezia furfur; 200 μM, 5 minutes): >1000 CFU; Colony forming units after incubation time specified (Malassezia furfur; 200 μM, 10 minutes): >1000 CFU; Colony forming units after incubation time specified (Malassezia furfur; 200 μM, 20 minutes): >1000 CFU; Colony forming units after incubation time specified (Malassezia furfur; 200 μM, 60 minutes): 52 ± 16 CFU; Colony forming units after incubation time specified (Malassezia furfur; 500 μM, 5 minutes): >1000 CFU; Colony forming units after incubation time specified (Malassezia furfur; 500 μM, 10 minutes): 398 ± 290 CFU; Colony forming units after incubation time specified (Malassezia furfur; 500 μM, 20 minutes): 26 ± 6 CFU; Colony forming units after incubation time specified (Malassezia furfur; 500 μM, 60 minutes): 1 ± 1 CFU
zinc pyrithione [ZPT]	2000 ± 0 CFU	2000 ± 0 CFU	2000 ± 0 CFU	2000 ± 0 CFU	2000 ± 0 CFU	2000 ± 0 CFU	2000 ± 0 CFU	2000 ± 0 CFU	2000 ± 0 CFU	2000 ± 0 CFU	2000 ± 0 CFU	2000 ± 0 CFU	2000 ± 0 CFU	2000 ± 0 CFU	2000 ± 0 CFU	2000 ± 0 CFU	2000 ± 0 CFU	2000 ± 0 CFU	2000 ± 0 CFU	2000 ± 0 CFU	Inhibition in words ([1]; 50-1000 ppm, up to 60 minutes): no significant inhibition; Colony forming units after incubation time specified (Malassezia furfur; 100 μM, 5 minutes): >1000 CFU; Colony forming units after incubation time specified (Malassezia furfur; 100 μM, 10 minutes): >1000 CFU; Colony forming units after incubation time specified (Malassezia furfur; 100 μM, 20 minutes): >1000 CFU; Colony forming units after incubation time specified (Malassezia furfur; 100 μM, 60 minutes): >1000 CFU; Colony forming units after incubation time specified (Malassezia furfur; 200 μM, 5 minutes): >1000 CFU; Colony forming units after incubation time specified (Malassezia furfur; 200 μM, 10 minutes): >1000 CFU; Colony forming units after incubation time specified (Malassezia furfur; 200 μM, 20 minutes): >1000 CFU; Colony forming units after incubation time specified (Malassezia furfur; 200 μM, 60 minutes): >1000 CFU; Colony forming units after incubation time specified (Malassezia furfur; 500 μM, 5 minutes): >1000 CFU; Colony forming units after incubation time specified (Malassezia furfur; 500 μM, 10 minutes): >1000 CFU; Colony forming units after incubation time specified (Malassezia furfur; 500 μM, 20 minutes): >1000 CFU; Colony forming units after incubation time specified (Malassezia furfur; 500 μM, 60 minutes): >1000 CFU
